How the values were obtained:
iROS = iROS production in neuron-glia cultures of PHOX+/+ and PHOX−/− mice; format: cell-based, mouse; conditions: DM 10^−14 M
Method: The neuron-glia cultures were treated with vehicle, LPS 10 ng/ml alone, and DM (10^−14 M) 30 min pretreatment followed by LPS treatment as in Example 1. Neurotoxicity was assessed by DA uptake as described in Example 1. TNFα production was measured by ELISA and iROS was determined by DCFDA as in Example 5. Results are expressed as a percentage of the control culture in FIG. 7A, pg/ml in FIG. 7B, and difference from control in FIG. 7C, respectively, and are the mean±S.E.M. of five individual experiments with triplicates in each experiment. *, P<0.05 compared with LPS culture.

iNOS = test: Western blot of iNOS in microglia enriched cultures; format: cell-based, rat; conditions: femto-molar DM, 30 min pretreatment, LPS
Method: Western blots were used to analyze possible effects of DM on iNOS and COX2 production in rat microglia enriched cultures. The cultures were prepared and treated with vehicle, OM DM, 10^−14DM, LPS alone, and LPS with different concentrations of DM. The production of iNOS (inducible nitric oxide synthenase) and COX2 (cycloxyase 2) in the culture extracts were detected by Western Blot assay. Data in FIG. 9B represent the mean±S.E.

SMILES: COc1ccc2c(c1)[C@@]13CCCC[C@H]1[C@@H](C2)N(C)CC3 [DM, d-3-methoxy-N-methylmorphinan]
- LPS-induced iROS production (iROS; PHOX+/+ mice): significantly inhibited iROS production
- LPS-induced iROS production (iROS; PHOX−/− mice): failed to show any effect
- protein content of iNOS (iNOS): failing to affect the protein content
